Experimental data from ChEMBL document CHEMBL1909046, “DrugMatrix in vitro pharmacology data”.

Tests used:
[1] = target: T1, Type-2 angiotensin II receptor (Homo sapiens, UniProt P50052); type: cell-based; settings: cho-k1; also: in other assays of this panel Not Active means under 50% inhibition at 10 µM
T1 sequence (P50052 whole entry): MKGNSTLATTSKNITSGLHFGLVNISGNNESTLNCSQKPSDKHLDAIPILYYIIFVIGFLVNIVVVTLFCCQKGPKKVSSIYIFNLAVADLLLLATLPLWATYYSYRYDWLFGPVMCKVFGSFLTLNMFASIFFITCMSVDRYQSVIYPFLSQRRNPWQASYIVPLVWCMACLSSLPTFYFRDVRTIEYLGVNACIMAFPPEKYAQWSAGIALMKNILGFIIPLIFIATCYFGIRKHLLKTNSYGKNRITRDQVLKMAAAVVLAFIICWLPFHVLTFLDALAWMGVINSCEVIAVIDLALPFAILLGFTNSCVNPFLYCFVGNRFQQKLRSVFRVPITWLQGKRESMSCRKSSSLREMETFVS

Glycine receptor = Glycine receptor (Rattus norvegicus, UniProt P22771+P24524+P07727+P20781); type: cell membranes, Wistar, Spinal cord, Membrane; also: in other assays of this panel Not Active means under 50% inhibition at 10 µM
[2] = DRUGMATRIX: Phosphodiesterase PDE4 enzyme inhibition (substrate: [3H]cAMP + cAMP); settings: u-937; Not Active = under 50% inhibition at 10 µM
Cathepsin G = target: T2, Cathepsin G (Homo sapiens, UniProt P08311); type: tissue-based; settings: neutrophil;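 also: inhibition of Cathepsin G enzyme activity, tested on an AMC-conjugated peptide substrate; in other assays of this panel Not Active means under 50% inhibition at 10 µM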
T2 sequence (P08311 whole entry): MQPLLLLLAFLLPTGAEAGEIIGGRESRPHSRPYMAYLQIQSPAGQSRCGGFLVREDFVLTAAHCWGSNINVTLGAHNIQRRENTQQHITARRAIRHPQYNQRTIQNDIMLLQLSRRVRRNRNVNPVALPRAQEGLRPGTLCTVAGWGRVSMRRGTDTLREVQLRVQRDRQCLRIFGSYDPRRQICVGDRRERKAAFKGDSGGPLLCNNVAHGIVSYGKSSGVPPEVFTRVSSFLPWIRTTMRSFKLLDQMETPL

[3] = target: Matrix metalloproteinase-9 (Homo sapiens, UniProt P14780); assay: biochemical; type: cell-based;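 also: inhibition of isolated MMP-9 enzyme activity toward a synthetic peptide substrate, from the DrugMatrix protease screening panel; in other assays of this panel Not Active means under 50% inhibition at 10 µM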
Sequence of Matrix metalloproteinase-9 (P14780 whole entry): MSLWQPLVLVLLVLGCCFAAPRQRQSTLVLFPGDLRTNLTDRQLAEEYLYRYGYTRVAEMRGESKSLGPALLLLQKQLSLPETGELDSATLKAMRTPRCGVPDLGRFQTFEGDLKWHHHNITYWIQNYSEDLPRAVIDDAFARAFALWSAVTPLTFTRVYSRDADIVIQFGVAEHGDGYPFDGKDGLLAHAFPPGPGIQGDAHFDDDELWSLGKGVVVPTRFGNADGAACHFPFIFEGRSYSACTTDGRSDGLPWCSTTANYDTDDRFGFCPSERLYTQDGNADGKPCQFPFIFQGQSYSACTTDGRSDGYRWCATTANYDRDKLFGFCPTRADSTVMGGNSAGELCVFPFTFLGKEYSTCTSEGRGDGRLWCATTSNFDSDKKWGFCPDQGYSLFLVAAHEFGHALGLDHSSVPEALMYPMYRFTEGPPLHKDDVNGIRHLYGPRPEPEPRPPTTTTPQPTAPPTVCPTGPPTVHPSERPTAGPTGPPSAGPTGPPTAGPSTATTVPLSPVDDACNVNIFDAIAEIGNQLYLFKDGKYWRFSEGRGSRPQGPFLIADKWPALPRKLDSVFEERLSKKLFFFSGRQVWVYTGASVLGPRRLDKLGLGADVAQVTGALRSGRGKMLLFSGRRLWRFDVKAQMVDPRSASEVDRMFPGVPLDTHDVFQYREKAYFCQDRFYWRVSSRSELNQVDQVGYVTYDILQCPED

[4] = target: Protein phosphatase 3 catalytic subunit alpha (Homo sapiens, UniProt Q08209); parameters: species or system Escherichia coli
[5] = target: Voltage-gated inwardly rectifying potassium channel KCNH2 (Homo sapiens, UniProt Q12809); settings: hek293; also: in other assays of this panel Not Active means under 50% inhibition at 10 µM
Sequence of Voltage-gated inwardly rectifying potassium channel KCNH2 (Q12809 whole entry): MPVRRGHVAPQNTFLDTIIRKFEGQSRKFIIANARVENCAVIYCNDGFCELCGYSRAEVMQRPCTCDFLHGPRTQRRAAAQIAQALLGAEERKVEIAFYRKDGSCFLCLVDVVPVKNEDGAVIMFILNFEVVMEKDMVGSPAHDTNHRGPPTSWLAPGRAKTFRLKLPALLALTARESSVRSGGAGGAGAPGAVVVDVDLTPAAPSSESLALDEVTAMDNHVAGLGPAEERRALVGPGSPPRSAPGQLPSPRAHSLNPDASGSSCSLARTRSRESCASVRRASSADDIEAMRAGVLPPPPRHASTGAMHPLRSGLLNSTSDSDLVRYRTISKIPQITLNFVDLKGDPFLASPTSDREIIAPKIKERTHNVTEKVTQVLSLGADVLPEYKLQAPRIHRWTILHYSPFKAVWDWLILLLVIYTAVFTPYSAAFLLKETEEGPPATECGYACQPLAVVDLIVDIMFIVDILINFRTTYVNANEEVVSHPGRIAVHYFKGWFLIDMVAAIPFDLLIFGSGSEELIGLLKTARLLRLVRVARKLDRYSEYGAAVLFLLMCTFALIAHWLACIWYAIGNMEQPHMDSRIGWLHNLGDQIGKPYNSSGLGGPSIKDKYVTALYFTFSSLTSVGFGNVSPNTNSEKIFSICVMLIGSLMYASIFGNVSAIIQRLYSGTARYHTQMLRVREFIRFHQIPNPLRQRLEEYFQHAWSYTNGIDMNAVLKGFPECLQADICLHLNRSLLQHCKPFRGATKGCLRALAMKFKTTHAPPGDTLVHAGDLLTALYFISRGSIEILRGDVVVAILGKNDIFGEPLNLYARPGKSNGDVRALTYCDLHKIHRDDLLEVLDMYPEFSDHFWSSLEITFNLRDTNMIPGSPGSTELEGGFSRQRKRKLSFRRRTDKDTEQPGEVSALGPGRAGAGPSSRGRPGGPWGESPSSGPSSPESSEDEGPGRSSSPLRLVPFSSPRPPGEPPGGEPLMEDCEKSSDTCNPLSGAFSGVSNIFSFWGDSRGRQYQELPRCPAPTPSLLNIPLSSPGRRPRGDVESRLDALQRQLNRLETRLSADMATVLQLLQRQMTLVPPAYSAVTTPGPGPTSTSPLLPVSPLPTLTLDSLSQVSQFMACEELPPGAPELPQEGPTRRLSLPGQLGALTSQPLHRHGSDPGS

Cytochrome P450 3A4 = Cytochrome P450 3A4 (Homo sapiens, UniProt P08684); settings: bti-tn-5b1-4; also: in other assays of this panel Not Active means under 50% inhibition at 10 µM
Sequence of Cytochrome P450 3A4 (P08684 whole entry): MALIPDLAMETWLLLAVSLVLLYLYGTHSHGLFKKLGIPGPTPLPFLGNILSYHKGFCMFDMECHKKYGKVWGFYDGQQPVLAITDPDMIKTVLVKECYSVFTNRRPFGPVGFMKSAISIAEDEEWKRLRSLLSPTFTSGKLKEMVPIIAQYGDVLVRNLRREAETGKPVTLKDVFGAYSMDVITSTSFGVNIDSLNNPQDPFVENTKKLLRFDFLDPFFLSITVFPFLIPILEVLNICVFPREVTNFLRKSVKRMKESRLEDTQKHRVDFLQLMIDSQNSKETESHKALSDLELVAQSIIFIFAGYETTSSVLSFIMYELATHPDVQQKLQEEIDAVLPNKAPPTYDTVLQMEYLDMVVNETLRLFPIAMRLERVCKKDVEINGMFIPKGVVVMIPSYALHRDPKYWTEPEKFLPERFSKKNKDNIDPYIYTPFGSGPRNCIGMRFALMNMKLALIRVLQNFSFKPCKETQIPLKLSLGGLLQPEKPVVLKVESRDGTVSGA

CC(C)CN(C[C@@H](O)[C@H](Cc1ccccc1)NC(=O)O[C@H]1CCOC1)S(=O)(=O)c1ccc(N)cc1
Not Active: IC50 [1] | IC50 (Glycine receptor) | IC50 [2] | Ki [2] | IC50 (Cathepsin G) | IC50 [3] | IC50 [4] | IC50 [5] | Ki [5]

c1ccc(Nc2ccc(Nc3ccccc3)cc2)cc1
Not Active: IC50 [1] | IC50 (Glycine receptor) | IC50 [2] | Ki [2] | IC50 (Cathepsin G) | IC50 [3] | IC50 [4] | IC50 (Cytochrome P450 3A4) | Ki (Cytochrome P450 3A4) | IC50 [5] | Ki [5]

COc1cc2c3cc1Oc1cc(ccc1O)C[C@@H]1c4c(cc(OC)c(O)c4Oc4ccc(cc4)C[C@@H]3N(C)CC2)CC[N+]1(C)C.[Cl-]
Not Active: IC50 [1] | IC50 (Glycine receptor) | IC50 [2] | Ki [2] | IC50 (Cathepsin G) | IC50 [3] | IC50 [4] | IC50 (Cytochrome P450 3A4) | Ki (Cytochrome P450 3A4) | IC50 [5] | Ki [5]

NC(=O)N1c2ccccc2CCc2ccccc21
Not Active: IC50 [1] | IC50 (Glycine receptor) | IC50 [2] | Ki [2] | IC50 (Cathepsin G) | IC50 [3] | IC50 [4] | IC50 (Cytochrome P450 3A4) | Ki (Cytochrome P450 3A4) | IC50 [5] | Ki [5]

O=C1CC[C@@H](N2C(=O)c3ccccc3C2=O)C(=O)N1
Not Active: IC50 [1] | IC50 (Glycine receptor) | IC50 [2] | Ki [2] | IC50 (Cathepsin G) | IC50 [3] | IC50 [4] | IC50 (Cytochrome P450 3A4) | Ki (Cytochrome P450 3A4) | IC50 [5] | Ki [5]

Cc1onc(O)c1CC(N)C(=O)O (racemic) [(R,S)-AMPA]
Not Active: IC50 [1] | IC50 (Glycine receptor) | IC50 [2] | Ki [2] | IC50 (Cathepsin G) | IC50 [3] | IC50 [4] | IC50 (Cytochrome P450 3A4) | Ki (Cytochrome P450 3A4) | IC50 [5] | Ki [5]

Nc1nc2c(ncn2COCCO)c(=O)[nH]1 [ACYCLOVIR]
Not Active: IC50 [1] | IC50 (Glycine receptor) | IC50 [2] | Ki [2] | IC50 (Cathepsin G) | IC50 [3] | IC50 [4] | IC50 (Cytochrome P450 3A4) | Ki (Cytochrome P450 3A4)

CN(C)c1nc(N(C)C)nc(N(C)C)n1 [ALTRETAMINE]
Not Active: IC50 [1] | IC50 (Glycine receptor) | IC50 [2] | Ki [2] | IC50 (Cathepsin G) | IC50 [3] | IC50 [4] | IC50 [5] | Ki [5]

Nc1c(Br)cc(Br)cc1CN[C@H]1CC[C@H](O)CC1 [AMBROXOL]
Not Active: IC50 [1] | IC50 (Glycine receptor) | IC50 [2] | Ki [2] | IC50 (Cathepsin G) | IC50 [3] | IC50 [4] | IC50 [5] | Ki [5]

CCOC(=O)C1=C(COCCN)NC(C)=C(C(=O)OC)C1c1ccccc1Cl (stereo unspecified) [AMLODIPINE]
Not Active: IC50 [1] | IC50 (Glycine receptor) | IC50 [2] | Ki [2] | IC50 (Cathepsin G) | IC50 [3] | IC50 [4] | IC50 (Cytochrome P450 3A4) | Ki (Cytochrome P450 3A4)

CC(NC(C)(C)C)C(=O)c1cccc(Cl)c1 (stereo unspecified) [BUPROPION]
Not Active: IC50 [1] | IC50 (Glycine receptor) | IC50 [2] | Ki [2] | IC50 (Cathepsin G) | IC50 [3] | IC50 [4] | IC50 (Cytochrome P450 3A4) | Ki (Cytochrome P450 3A4)

CN(C)CCCN1c2ccccc2Sc2ccc(Cl)cc21 [CHLORPROMAZINE]
Not Active: IC50 [1] | IC50 (Glycine receptor) | IC50 [2] | Ki [2] | IC50 (Cathepsin G) | IC50 [3] | IC50 [4]

CC(C)(Oc1ccc(Cl)cc1)C(=O)O [CLOFIBRIC ACID]
Not Active: IC50 [1] | IC50 (Glycine receptor) | IC50 [2] | Ki [2] | IC50 (Cathepsin G) | IC50 [3] | IC50 [4] | IC50 [5] | Ki [5]

Cc1cc(C(C#N)c2ccc(Cl)cc2)c(Cl)cc1NC(=O)c1cc(I)cc(I)c1O (stereo unspecified) [CLOSANTEL]
Not Active: IC50 [1] | IC50 (Glycine receptor) | IC50 [2] | Ki [2] | IC50 (Cathepsin G) | IC50 [3] | IC50 [4] | IC50 [5] | Ki [5]

CNCCCN1c2ccccc2CCc2ccccc21 [DESIPRAMINE]
Not Active: IC50 [1] | IC50 (Glycine receptor) | IC50 [2] | Ki [2] | IC50 (Cathepsin G) | IC50 [3] | IC50 [4] | IC50 (Cytochrome P450 3A4) | Ki (Cytochrome P450 3A4)

CC(C)[C@@]1(NC(=O)[C@@H]2C[C@@H]3c4cccc5[nH]cc(c45)C[C@H]3N(C)C2)O[C@@]2(O)[C@@H]3CCCN3C(=O)[C@H](Cc3ccccc3)N2C1=O.CS(=O)(=O)O [DIHYDROERGOCRISTINE MESYLATE]
Not Active: IC50 [1] | IC50 (Glycine receptor) | IC50 [2] | Ki [2] | IC50 (Cathepsin G) | IC50 [3] | IC50 [4] | IC50 [5] | Ki [5]

CC(=O)O[C@@]12CO[C@@H]1C[C@H](O)[C@@]1(C)C(=O)[C@H](O)C3=C(C)[C@@H](OC(=O)[C@H](O)[C@@H](NC(=O)OC(C)(C)C)c4ccccc4)C[C@@](O)([C@@H](OC(=O)c4ccccc4)[C@H]21)C3(C)C.O.O.O [DOCETAXEL]
Not Active: IC50 [1] | IC50 (Glycine receptor) | IC50 [2] | Ki [2] | IC50 (Cathepsin G) | IC50 [3] | IC50 [4] | IC50 [5] | Ki [5]

COc1cc2nc(N3CCN(C(=O)C4COc5ccccc5O4)CC3)nc(N)c2cc1OC (stereo unspecified) [DOXAZOSIN]
Not Active: IC50 [1] | IC50 (Glycine receptor) | IC50 [2] | Ki [2] | IC50 (Cathepsin G) | IC50 [3] | IC50 [4]

O=C(CCCN1CC=C(n2c(=O)[nH]c3ccccc32)CC1)c1ccc(F)cc1 [DROPERIDOL]
Not Active: IC50 [1] | IC50 (Glycine receptor) | IC50 [2] | Ki [2] | IC50 (Cathepsin G) | IC50 [3] | IC50 [4] | IC50 (Cytochrome P450 3A4) | Ki (Cytochrome P450 3A4)

CC(C)[C@H]1C(=O)N2CCC[C@H]2[C@]2(O)O[C@](NC(=O)[C@@H]3C=C4c5cccc6[nH]cc(c56)C[C@H]4N(C)C3)(C(C)C)C(=O)N12 [ERGOCORNINE]
Not Active: IC50 [1] | IC50 (Glycine receptor) | IC50 [2] | Ki [2] | IC50 (Cathepsin G) | IC50 [3] | IC50 [4] | IC50 [5] | Ki [5]

C[C@]12CC[C@@H]3c4ccc(O)cc4CC[C@H]3[C@@H]1CCC2=O [ESTRONE]
Not Active: IC50 [1] | IC50 (Glycine receptor) | IC50 [2] | Ki [2] | IC50 (Cathepsin G) | IC50 [3] | IC50 [4] | IC50 [5] | Ki [5]

N=C(N)NCCN1CCCCCCC1 [GUANETHIDINE]
Not Active: IC50 [1] | IC50 (Glycine receptor) | IC50 [2] | Ki [2] | IC50 (Cathepsin G) | IC50 [3] | IC50 [4]

CCC(C)n1ncn(-c2ccc(N3CCN(c4ccc(OCC5COC(Cn6cncn6)(c6ccc(Cl)cc6Cl)O5)cc4)CC3)cc2)c1=O (stereo unspecified) [ITRACONAZOLE]
Not Active: IC50 [1] | IC50 (Glycine receptor) | IC50 [2] | Ki [2] | IC50 (Cathepsin G) | IC50 [3] | IC50 [4] | IC50 [5] | Ki [5]

CC1(C)S[C@@H]2[C@H](NC(=O)Cc3ccccc3)C(=O)N2[C@H]1C(=O)O [PENICILLIN G]
Not Active: IC50 [1] | IC50 (Glycine receptor) | IC50 [2] | Ki [2] | IC50 (Cathepsin G) | IC50 [3] | IC50 [4] | IC50 [5] | Ki [5]

Cc1ccc(N(CC2=NCCN2)c2cccc(O)c2)cc1 [PHENTOLAMINE]
Not Active: IC50 [1] | IC50 (Glycine receptor) | IC50 [2] | Ki [2] | IC50 (Cathepsin G) | IC50 [3] | IC50 [4]

CN(C)CCCN1c2ccccc2Sc2ccccc21 [PROMAZINE]
Not Active: IC50 [1] | IC50 (Glycine receptor) | IC50 [2] | Ki [2] | IC50 (Cathepsin G) | IC50 [3] | IC50 [4] | IC50 [5] | Ki [5]
